According to ChEMBL document CHEMBL5465560, “Selectivity Literature for EUbOPEN Chemogenomic Library” (2024):

How the values were obtained:
[1] = biological target: Ribosomal protein S6 kinase alpha-3 (Homo sapiens, UniProt P51812); assay: Selectivity interaction (Kinase panel (KiNativ target engagement assay in Jurkat cells)) EUB0001635a RPS6KA3; format: cell-based; conditions: Selectivity number of off-targets 0.0, Selectivity number of targets 233.0, Source Knowledge https://www.sciencedirect.com/science/article/pii/S2451945619300674?via%3Dihub, at 1 µM
Chain of Ribosomal protein S6 kinase alpha-3 (P51812 whole entry): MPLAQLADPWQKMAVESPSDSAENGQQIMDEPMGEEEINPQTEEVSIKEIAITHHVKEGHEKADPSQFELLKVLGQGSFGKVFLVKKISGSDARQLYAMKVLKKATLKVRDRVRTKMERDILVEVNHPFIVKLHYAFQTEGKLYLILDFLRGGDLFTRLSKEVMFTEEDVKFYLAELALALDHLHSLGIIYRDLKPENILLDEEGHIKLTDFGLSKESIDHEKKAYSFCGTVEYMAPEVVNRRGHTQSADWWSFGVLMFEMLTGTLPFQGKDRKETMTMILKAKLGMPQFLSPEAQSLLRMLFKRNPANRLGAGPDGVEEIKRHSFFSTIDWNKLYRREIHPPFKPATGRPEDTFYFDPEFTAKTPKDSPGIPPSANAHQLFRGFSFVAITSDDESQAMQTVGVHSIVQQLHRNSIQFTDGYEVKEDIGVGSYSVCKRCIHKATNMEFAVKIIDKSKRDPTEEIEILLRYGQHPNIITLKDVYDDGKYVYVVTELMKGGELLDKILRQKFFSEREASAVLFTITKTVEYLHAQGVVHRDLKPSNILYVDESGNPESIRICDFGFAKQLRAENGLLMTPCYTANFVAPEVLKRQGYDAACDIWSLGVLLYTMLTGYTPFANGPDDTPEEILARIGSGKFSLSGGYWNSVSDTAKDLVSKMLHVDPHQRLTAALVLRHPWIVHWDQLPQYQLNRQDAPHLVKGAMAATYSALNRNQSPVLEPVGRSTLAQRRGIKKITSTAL

[2] = biological target: Glycogen synthase kinase-3 alpha (Homo sapiens, UniProt P49840); assay: Selectivity interaction (KinomeScan (DiscoverX)) EUB0000229b GSK3A; conditions: at 10 µM
Chain of Glycogen synthase kinase-3 alpha (P49840 2-483 limits assumed): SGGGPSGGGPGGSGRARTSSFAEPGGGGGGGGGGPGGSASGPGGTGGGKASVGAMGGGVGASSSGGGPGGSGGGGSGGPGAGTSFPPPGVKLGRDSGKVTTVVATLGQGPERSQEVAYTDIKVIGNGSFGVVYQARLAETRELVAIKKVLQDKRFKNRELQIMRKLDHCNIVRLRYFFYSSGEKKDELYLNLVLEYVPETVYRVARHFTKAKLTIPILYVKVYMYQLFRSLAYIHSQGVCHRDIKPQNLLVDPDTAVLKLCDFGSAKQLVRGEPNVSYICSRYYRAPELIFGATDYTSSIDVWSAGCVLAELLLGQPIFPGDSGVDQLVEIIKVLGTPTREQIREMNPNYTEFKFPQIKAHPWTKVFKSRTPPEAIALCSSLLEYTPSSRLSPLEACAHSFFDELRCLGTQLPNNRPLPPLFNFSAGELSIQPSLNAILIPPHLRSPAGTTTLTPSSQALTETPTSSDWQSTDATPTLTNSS

[3] = biological target: T1, cGMP-dependent protein kinase 2 (Homo sapiens) (UniProt Q13237); assay: Selectivity interaction (Kinase panel (Z-LYTE Assay)) EUB0001632a PRKG2; conditions: at 10 µM
T1 sequence (whole entry): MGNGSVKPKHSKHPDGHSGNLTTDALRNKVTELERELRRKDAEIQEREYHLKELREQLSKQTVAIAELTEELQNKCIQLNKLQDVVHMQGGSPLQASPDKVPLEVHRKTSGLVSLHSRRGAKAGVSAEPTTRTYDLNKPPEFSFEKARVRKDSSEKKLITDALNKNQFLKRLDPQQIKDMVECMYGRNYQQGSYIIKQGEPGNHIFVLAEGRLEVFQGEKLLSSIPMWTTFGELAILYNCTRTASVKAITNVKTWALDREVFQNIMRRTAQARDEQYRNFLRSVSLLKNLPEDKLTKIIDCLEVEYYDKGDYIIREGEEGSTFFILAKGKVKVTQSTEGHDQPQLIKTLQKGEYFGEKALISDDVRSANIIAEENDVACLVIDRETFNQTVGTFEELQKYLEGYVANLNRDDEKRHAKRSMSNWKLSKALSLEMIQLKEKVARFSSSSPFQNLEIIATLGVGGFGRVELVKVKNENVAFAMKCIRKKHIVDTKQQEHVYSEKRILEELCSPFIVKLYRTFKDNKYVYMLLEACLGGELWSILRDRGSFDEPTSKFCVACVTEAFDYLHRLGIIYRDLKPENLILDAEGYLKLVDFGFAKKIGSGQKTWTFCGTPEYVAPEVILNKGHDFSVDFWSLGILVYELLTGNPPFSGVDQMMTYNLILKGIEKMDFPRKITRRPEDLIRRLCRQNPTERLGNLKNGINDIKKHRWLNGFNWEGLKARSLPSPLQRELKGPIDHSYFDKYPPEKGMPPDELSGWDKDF

[4] = tested on: Epidermal growth factor receptor (Homo sapiens), P00533 [UNDEFINED MUTATION]; conditions: at 10 µM
Chain of Epidermal growth factor receptor (Homo sapiens), P00533 [UNDEFINED MUTATION] (P00533 whole entry, looked up, change not shown, canonical isoform): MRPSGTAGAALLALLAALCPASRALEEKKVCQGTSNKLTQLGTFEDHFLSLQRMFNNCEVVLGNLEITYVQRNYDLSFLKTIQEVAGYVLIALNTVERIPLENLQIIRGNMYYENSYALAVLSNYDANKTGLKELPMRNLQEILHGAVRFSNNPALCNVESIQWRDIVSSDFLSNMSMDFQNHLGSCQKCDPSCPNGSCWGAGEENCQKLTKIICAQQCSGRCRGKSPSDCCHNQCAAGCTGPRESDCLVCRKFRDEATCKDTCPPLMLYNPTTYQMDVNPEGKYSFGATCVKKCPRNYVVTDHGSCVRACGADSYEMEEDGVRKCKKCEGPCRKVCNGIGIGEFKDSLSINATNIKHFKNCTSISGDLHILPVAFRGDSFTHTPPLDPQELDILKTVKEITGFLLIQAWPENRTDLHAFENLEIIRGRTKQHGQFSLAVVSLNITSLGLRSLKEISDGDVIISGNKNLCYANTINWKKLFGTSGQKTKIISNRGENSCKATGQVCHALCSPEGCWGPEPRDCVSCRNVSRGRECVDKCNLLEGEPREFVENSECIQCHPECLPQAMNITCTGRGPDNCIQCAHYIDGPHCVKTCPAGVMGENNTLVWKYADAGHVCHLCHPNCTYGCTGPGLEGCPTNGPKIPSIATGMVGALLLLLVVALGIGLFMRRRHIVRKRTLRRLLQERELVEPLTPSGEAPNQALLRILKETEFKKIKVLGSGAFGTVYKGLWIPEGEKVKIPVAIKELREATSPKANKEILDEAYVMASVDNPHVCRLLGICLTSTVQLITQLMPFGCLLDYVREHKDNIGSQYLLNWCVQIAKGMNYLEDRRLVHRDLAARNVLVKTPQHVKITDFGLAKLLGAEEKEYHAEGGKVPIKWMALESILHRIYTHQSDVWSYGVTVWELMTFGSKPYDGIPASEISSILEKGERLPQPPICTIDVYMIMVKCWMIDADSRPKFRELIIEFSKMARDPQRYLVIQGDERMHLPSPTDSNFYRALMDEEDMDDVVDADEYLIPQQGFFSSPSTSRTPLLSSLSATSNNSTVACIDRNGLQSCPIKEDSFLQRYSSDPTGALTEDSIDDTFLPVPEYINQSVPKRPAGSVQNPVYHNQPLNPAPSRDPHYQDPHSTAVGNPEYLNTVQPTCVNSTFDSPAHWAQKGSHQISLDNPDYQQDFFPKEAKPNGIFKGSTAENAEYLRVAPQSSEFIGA

[5] = biological target: Casein kinase I isoform gamma-2 (Homo sapiens) (UniProt P78368); assay: Selectivity interaction (KinomeScan (DiscoverX)) EUB0001049a CSNK1G2; conditions: at 1 µM
Chain of Casein kinase I isoform gamma-2 (Homo sapiens) (P78368 whole entry, looked up, canonical isoform): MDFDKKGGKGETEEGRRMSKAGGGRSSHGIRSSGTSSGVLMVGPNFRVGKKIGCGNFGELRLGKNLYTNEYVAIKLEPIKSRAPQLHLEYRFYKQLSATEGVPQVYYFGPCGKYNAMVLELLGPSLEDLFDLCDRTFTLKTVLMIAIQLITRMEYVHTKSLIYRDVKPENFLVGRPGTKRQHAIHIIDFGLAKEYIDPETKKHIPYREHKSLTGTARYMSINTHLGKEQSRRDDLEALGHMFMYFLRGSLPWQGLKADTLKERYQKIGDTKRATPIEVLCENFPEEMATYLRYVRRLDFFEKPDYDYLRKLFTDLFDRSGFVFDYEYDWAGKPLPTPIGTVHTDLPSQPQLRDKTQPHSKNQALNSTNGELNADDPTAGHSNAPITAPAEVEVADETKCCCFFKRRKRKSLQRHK

[6] = biological target: Cyclin-dependent kinase 1/cyclin B (Homo sapiens, UniProt P06493); assay: Selectivity interaction (Kinase panel (Enzyme activity assay)) EUB0000612a CDK1; format: protein-complex assay
[7] = biological target: Amine oxidase [flavin-containing] B (Homo sapiens, UniProt P27338); assay: Selectivity interaction (Eurofins safety panel) EUB0001564a MAOB; conditions: at 10 µM
Chain of Amine oxidase [flavin-containing] B (P27338 whole entry): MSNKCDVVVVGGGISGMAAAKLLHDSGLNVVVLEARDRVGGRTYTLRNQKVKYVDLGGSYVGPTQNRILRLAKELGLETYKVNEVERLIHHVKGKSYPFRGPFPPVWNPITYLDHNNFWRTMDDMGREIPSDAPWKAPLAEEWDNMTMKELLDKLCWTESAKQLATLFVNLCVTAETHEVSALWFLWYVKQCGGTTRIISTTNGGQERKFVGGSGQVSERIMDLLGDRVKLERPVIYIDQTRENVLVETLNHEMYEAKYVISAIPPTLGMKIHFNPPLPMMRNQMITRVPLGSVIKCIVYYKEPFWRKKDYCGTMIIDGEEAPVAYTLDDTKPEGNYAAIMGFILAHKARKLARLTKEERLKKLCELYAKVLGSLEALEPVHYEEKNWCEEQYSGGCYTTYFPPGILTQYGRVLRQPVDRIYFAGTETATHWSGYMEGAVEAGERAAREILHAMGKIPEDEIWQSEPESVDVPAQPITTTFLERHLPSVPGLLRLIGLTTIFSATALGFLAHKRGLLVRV

[8] = biological target: T2, Dual specificity mitogen-activated protein kinase kinase 4 (Homo sapiens) (UniProt P45985); assay: Selectivity interaction (KinomeScan (DiscoverX)) EUB0000607a MAP2K4; conditions: at 10 µM
T2 sequence (whole entry): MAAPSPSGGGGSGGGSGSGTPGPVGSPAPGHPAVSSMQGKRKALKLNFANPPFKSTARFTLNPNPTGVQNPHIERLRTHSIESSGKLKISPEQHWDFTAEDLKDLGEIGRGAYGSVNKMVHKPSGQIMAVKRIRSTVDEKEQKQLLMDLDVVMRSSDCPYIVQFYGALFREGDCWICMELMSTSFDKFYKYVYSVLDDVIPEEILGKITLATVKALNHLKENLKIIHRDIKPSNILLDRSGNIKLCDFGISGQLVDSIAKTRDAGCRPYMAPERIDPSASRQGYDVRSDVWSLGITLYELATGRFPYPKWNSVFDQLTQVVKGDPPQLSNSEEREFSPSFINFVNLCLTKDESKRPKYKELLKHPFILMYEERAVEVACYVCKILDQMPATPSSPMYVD

[9] = biological target: Vascular endothelial growth factor receptor 1 (Homo sapiens) (UniProt P17948); assay: Selectivity interaction (Kinase panel (DSF assay)) EUB0001558a FLT1
Chain of Vascular endothelial growth factor receptor 1 (Homo sapiens) (P17948 whole entry): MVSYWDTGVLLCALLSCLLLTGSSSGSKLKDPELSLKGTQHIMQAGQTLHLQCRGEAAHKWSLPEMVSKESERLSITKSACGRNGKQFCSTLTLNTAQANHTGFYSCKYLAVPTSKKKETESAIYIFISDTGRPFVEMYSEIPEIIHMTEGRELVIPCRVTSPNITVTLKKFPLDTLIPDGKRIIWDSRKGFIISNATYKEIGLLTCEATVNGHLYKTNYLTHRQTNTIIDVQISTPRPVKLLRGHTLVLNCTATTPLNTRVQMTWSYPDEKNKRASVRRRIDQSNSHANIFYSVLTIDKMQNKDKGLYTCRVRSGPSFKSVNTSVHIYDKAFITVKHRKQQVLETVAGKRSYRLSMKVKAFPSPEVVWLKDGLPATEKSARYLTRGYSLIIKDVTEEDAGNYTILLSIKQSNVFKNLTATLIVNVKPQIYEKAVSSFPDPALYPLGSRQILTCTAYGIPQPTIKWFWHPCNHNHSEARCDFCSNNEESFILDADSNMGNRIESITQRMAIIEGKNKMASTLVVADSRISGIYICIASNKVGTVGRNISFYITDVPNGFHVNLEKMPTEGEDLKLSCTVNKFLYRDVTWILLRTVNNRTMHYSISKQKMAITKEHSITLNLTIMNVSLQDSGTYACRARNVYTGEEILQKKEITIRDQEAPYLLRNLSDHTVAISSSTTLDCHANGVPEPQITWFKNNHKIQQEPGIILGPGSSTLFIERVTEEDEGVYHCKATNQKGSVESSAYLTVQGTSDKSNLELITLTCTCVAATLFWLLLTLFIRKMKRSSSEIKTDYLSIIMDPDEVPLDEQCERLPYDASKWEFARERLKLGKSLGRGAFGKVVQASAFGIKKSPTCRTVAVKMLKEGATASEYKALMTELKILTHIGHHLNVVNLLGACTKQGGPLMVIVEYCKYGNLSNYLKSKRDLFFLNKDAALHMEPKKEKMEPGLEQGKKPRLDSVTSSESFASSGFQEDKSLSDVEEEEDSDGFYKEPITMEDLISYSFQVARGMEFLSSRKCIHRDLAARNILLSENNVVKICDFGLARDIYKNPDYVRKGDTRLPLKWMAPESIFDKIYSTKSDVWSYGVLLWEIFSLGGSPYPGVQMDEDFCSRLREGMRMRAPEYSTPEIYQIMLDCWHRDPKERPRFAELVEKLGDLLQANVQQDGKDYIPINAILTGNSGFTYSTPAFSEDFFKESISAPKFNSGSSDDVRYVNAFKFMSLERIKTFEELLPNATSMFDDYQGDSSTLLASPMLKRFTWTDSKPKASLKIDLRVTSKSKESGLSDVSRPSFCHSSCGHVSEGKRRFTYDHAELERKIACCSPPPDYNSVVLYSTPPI

[10] = biological target: T3, Tyrosine-protein kinase JAK3 (Homo sapiens) (UniProt P52333); conditions: at 10 µM
T3 sequence (whole entry): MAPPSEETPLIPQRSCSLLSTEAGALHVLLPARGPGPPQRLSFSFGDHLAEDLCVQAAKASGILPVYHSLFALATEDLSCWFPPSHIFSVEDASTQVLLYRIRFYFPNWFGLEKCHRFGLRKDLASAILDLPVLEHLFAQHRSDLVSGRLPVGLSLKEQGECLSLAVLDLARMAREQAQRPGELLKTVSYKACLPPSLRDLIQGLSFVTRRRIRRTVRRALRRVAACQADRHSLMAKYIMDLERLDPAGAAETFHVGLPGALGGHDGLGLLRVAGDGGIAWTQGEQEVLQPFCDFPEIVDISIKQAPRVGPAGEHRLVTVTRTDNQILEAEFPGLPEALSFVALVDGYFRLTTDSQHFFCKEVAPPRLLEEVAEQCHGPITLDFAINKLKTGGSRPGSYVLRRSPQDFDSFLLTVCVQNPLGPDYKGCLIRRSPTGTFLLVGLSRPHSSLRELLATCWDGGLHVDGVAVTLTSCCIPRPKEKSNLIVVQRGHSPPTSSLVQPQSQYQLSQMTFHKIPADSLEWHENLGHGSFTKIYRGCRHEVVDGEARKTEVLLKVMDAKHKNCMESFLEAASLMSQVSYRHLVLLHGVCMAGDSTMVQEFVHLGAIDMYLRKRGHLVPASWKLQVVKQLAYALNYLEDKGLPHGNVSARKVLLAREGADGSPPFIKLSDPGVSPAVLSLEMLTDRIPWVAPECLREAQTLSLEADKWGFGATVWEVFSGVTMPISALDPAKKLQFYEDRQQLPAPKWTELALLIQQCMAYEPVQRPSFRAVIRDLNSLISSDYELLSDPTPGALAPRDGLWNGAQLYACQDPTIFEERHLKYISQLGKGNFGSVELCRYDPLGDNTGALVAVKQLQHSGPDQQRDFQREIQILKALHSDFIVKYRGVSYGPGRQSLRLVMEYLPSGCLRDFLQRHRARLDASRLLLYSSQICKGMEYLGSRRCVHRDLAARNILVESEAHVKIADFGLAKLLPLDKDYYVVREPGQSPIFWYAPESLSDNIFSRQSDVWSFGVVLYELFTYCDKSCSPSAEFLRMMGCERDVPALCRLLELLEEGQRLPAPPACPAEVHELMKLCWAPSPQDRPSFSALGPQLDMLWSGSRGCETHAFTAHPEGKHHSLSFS

Q: How did the % of engagement [1] turn out when `C=CC(=O)Nc1ccc(C(=O)Nc2[nH]nc3c2CN(C(=O)N[C@H](CN(C)C)c2ccccc2)C3(C)C)cc1` was run?
A: The % of engagement was -18.2%.

Q: How did the % binding [2] turn out when `COc1cc(N(C)c2ccnc3ccc(C(F)(F)F)cc23)cc(OC)c1OC` was run?
A: The % binding was 93%.

Q: For `Cn1cc(-n2cnc3c(NCc4nc5cc(Cl)c(Cl)cc5[nH]4)nc(N4CCOCC4)nc32)cn1`, which % of control [3] is on record?
A: Its % of control is -2.3%.

Q: How did the % of control [4] turn out when `Cc1cc([C@@H](C)Nc2ccccc2C(=O)O)c2nc(N3CCOCC3)cc(=O)n2c1` [AZD-6482] was run?
A: The % of control was 100%.

Q: For `COc1cc(Nc2nc(C)cc(-c3cnn4nc(OC)ccc34)n2)cc(C(F)(F)F)c1`, which % of control [5] is on record?
A: Its % of control is 97%.

Q: Which IC50 [6] does the source give for `CCc1cccc(CC)c1NC(=O)c1nn(C)c2c1CCc1cnc(Nc3ccc(C(=O)NC4CCN(C)CC4)cc3OC(F)(F)F)nc1-2` here?
A: Its IC50 is greater than 10 µM.

Q: How did the “% of inhibition” value [7] turn out when `CC[C@@H](Nc1c(C#N)c(-c2ccc(-c3cccc(C)c3F)cc2)nc2cnccc12)C(=O)O` [BAY-091] was run?
A: Its value is 81%.

Q: For `CNC(=O)Nc1ccc(-c2nc(N3CC4CCC(C3)O4)c3cnn(C4CCC5(CC4)OCCO5)c3n2)cc1`, which % of control [8] is on record?
A: The % of control was 90%.

Q: For `CC(C)(O)[C@H](F)CN1Cc2cc(NC(=O)c3cnn4cccnc34)c(N3CCOCC3)cc2C1=O`, which dTM [9] is on record?
A: The dTM was 3.3 K.

Q: Which % of control [10] does the source give for `CCN(CC)CCCCNc1ncc2cc(-c3cc(OC)cc(OC)c3)c(NC(=O)NC(C)(C)C)nc2n1` here?
A: Its % of control is 100%.
